Seven compounds from patent US4217446A, “ωAmino-2-hydroxyalkyl derivatives of aminoglycoside antibiotics” (Pfizer Inc., priority 1974, dated 1980) can be followed below.

The test system of assay [1] is Escherichia coli. The assay can be described thus: in vitro antibacterial activity, minimum inhibitory concentration (M.I.C.), agar plates. The format is cell-based. As to conditions: 24 hours at 37° C., read-out: MIC Esch. coli. How it is done: (§1) The in vitro evaluation of the compounds of the invention as antibacterial agents has been performed by determining the minimum inhibitory concentration (M.I.C.) of the test compound in a suitable medium at which growth of the particular micro-organism fails to occur. In practice, agar plates, each having incorporated therein the test compound at a particular concentration are inoculated with a standard number of cells of the test micro-organism and each plate is then incubated for 24 hours at 37° C. The plates are then observed for the presence or absence of the growth of bacteria and the appropriate M.I.C. value noted. Micro-organisms used in such tests having included strains of Escherichia coli, Klebsiella pneumoniae, Proteus mirabilis, Pseudomonas aeruginosa, Staphylococcus aureus and Streptococcus faecalis. Results of the testing of several of the compounds of this invention for their in vitro antibacterial activity, by the method described hereinbefore, are presented in Table I.

Assay [2] has as its system Proteus mirabilis. The description is as above. It is filed as cell-based. The settings on record: 24 hours at 37° C. Here is the method: as §1
Assay [3] concerns Klebsiella pneumoniae. The assay is described as above. It is filed as cell-based. The settings on record: 24 hours at 37° C., read-out: MIC Kleb. pneumoniae. Here is the method:
as §1

Assay [4] relates to Pseudomonas aeruginosa. Described as above. The format is cell-based. The settings on record: 24 hours at 37° C., read-out: MIC Pseud. aeruginosa. How it is done: as §1
Assay [5] deals with Staphylococcus aureus. The assay is described as above. It is filed as cell-based. As to conditions: 24 hours at 37° C., read-out: MIC Staph. aureus. How it is done:
as §1

In assay [6] the test system is E. coli. Nature of the assay: in vivo antibacterial activity against E. coli in mice, 50% protection against lethal effect. The settings on record: Escherichia coli, sc, subcutaneous, 50% protection over 72 hours, read-out: PD50. Here is the method: Each compound is administered at a series of dosage levels to groups of mice and its activity is determined as the level at which it gives 50% protection, against the lethal effect of the Escherichia coli organism over a period of 72 hours.
The in vivo antibacterial activity of 1-N-[(S)-4-amino-2-hydroxybutyl]kanamycin A against E. coli in mice has been measured.

The structures appear in SMILES notation. In brackets after ≈: the same amount, converted by molar mass.

The MIC is the lowest concentration found to suppress growth. Take `NCC(O)CN[C@@H]1C[C@H](N)[C@@H](O[C@H]2O[C@H](CN)[C@@H](O)[C@H](O)[C@H]2O)[C@H](O)[C@H]1O[C@H]1O[C@H](CO)[C@@H](O)[C@H](N)[C@H]1O` (stereo partly drawn) [1-N-[3-amino-2-hydroxypropyl]kanamycin, 1-N-[3-Amino-2-hydroxpropyl]kanamycin A]: the MIC in assay [1] was 12.5 µg/mL (≈ 22.4 µM); in assay [2] it was 12.5 µg/mL (≈ 22.4 µM); in assay [3] it was 6.2 µg/mL (≈ 11.1 µM); in assay [4], 3.1 µg/mL (≈ 5.56 µM); in assay [5], 3.1 µg/mL (≈ 5.56 µM).
Regarding `NCC[C@H](O)CN[C@@H]1C[C@H](N)[C@@H](O[C@H]2O[C@H](CN)[C@@H](O)[C@H](O)[C@H]2O)[C@H](O)[C@H]1O[C@H]1O[C@H](CO)[C@@H](O)[C@H](N)[C@H]1O` [1-N-[(S)-4-Amino-2-hydroxybutyl]kanamycin A], the ED50 in assay [6] worked out at 3.8 mg/kg. The MIC in assay [1] came out at 6.2 µg/mL (≈ 10.8 µM); in assay [2], 3.1 µg/mL (≈ 5.42 µM); in assay [3], 3.1 µg/mL (≈ 5.42 µM); in assay [4] it was 1.6 µg/mL (≈ 2.8 µM); in assay [5] it was 1.6 µg/mL (≈ 2.8 µM).
In the case of `NCC[C@H](O)CN[C@@H]1C[C@H](N)[C@@H](O[C@H]2O[C@H](CN)[C@@H](O)[C@H](O)[C@H]2N)[C@H](O)[C@H]1O[C@H]1O[C@H](CO)[C@@H](O)[C@H](N)[C@H]1O` [1-N-[(S)-4-Amino-2-hydroxybutyl]kanamycin B], the MIC is 3.1 µg/mL (≈ 5.43 µM) in assay [1]; 6.2 µg/mL (≈ 10.9 µM) in assay [2]; 1.6 µg/mL (≈ 2.8 µM) in assay [3]; 0.8 µg/mL (≈ 1.4 µM) in assay [4]; 1.6 µg/mL (≈ 2.8 µM) in assay [5].
Regarding `NCC[C@H](O)CN[C@@H]1C[C@H](N)[C@@H](O[C@H]2O[C@H](CN)[C@@H](O)[C@H](O)[C@H]2N)[C@H](O[C@@H]2O[C@H](CO)[C@@H](O)[C@H]2O)[C@H]1O` [1-N-[(S)-4-Amino-2-hydroxybutyl]ribostamycin], the MIC in assay [1] turned out to be 6.2 µg/mL (≈ 11.4 µM); in assay [2], 25 µg/mL (≈ 46.2 µM); in assay [3], 6.2 µg/mL (≈ 11.4 µM); in assay [4], 12.5 µg/mL (≈ 23.1 µM); in assay [5], 12.5 µg/mL (≈ 23.1 µM).
As for `NCCC[C@H](O)CN[C@@H]1C[C@H](N)[C@@H](O[C@H]2O[C@H](CN)[C@@H](O)[C@H](O)[C@H]2O)[C@H](O)[C@H]1O[C@H]1O[C@H](CO)[C@@H](O)[C@H](N)[C@H]1O` [1-N-[(S)-5-Amino-2-hydroxypentyl]kanamycin A], the MIC in assay [1] was 6.2 µg/mL (≈ 10.6 µM); in assay [2] it was 12.5 µg/mL (≈ 21.3 µM); in assay [3], 3.1 µg/mL (≈ 5.29 µM); in assay [4], 3.1 µg/mL (≈ 5.29 µM); in assay [5], 1.6 µg/mL (≈ 2.73 µM).
Regarding `NCCCC[C@H](O)CN[C@@H]1C[C@H](N)[C@@H](O[C@H]2O[C@H](CN)[C@@H](O)[C@H](O)[C@H]2O)[C@H](O)[C@H]1O[C@H]1O[C@H](CO)[C@@H](O)[C@H](N)[C@H]1O` [1-N-[(S)-6-Amino-2-hydroxyhexyl]-kanamycin A], the MIC in assay [1] stood at 6.2 µg/mL (≈ 10.3 µM); in assay [2], 3.1 µg/mL (≈ 5.17 µM); in assay [3] it was 6.2 µg/mL (≈ 10.3 µM); in assay [4], 3.1 µg/mL (≈ 5.17 µM); in assay [5], 1.6 µg/mL (≈ 2.67 µM).
As to `CNC[C@H]1O[C@H](O[C@H]2[C@H](O)[C@@H](O[C@H]3O[C@H](CO)[C@@H](O)[C@H](N)[C@H]3O)[C@H](NC[C@@H](O)CCN)C[C@@H]2N)[C@H](O)[C@@H](O)[C@@H]1O` [6'-N-Methyl-1-N-[(S)-4-amino-2-hydroxybutyl]kanamycin A], the MIC amounted to 6.2 µg/mL (≈ 10.6 µM) in assay [1]; 6.2 µg/mL (≈ 10.6 µM) in assay [2]; 3.1 µg/mL (≈ 5.29 µM) in assay [3]; 3.1 µg/mL (≈ 5.29 µM) in assay [4]; 3.1 µg/mL (≈ 5.29 µM) in assay [5].
